# Patent publication US11213527B2, “Inhibitory effect of low molecular weight compound on cancer and fibrosis” (NATIONAL UNIVERSITY CORPORATION TOTTORI UNIVERSITY, priority 2014, dated 2022)
# Tests used:
# liver fibrosis = test: Liver disease model mice (carbon tetrachloride-induced liver fibrosis); assay type: in vivo, C57BL/6 male mice; settings: IC-2 10.6 or 21.2 mg/kg intraperitoneally 3 times a week for 4 weeks, vs vehicle
# Method: First, 7-week-old C57BL/6 male mice (Japan SLC, Shizuoka, Japan) were subject to 1-week preparatory rearing. Among them, healthy mice were used. The mice were housed in an animal cage at a room temperature of 22±1° C. and a humidity of 50±5% throughout the preparatory rearing and experimental period and were given ad libitum access to food and water.
# A microsyringe (ITO CORPORATION, Shizuoka, Japan) was used to intraperitoneally administer carbon tetrachloride (CCl4: Wako Pure Chemical Industries, Ltd., Osaka, Japan) at 0.2 ml/kg, 3 times a week, for 4, 6, or 8 weeks. Carbon tetrachloride was dissolved into cone oil (Wako Pure Chemical Industries, Ltd.) at a concentration of 10%. The resulting solution was used. After this carbon tetrachloride solution was administered for 4 weeks, the mice were divided into a vehicle administration group, a glycyrrhizin administration group, an ICG-001 administration group, and an IC-2 administration group. Then, a microsyringe was used to intraperitoneally administer, 3 times a week for 4 weeks, carbon tetrachloride and a drug solution prepared in accordance with the following process. Note that the carbon tetrachloride and the drug solution were alternately administered with one-day interval.
# Glycyrrhizin (TOKYO CHEMICAL INDUSTRY CO., LTD., Tokyo, Japan) was dissolved in physiological saline. The solution was prepared at a concentration of 30 mg/ml while the pH was adjusted to 7.0 with 4 M NaOH liquid. IC-2 and ICG-001 (AdooQ BioScience, California, USA) were each dissolved in a WellSolve (Celeste Corporation, Tokyo, Japan) at a concentration of 40 mg/ml and 10 mg/ml, respectively. Next, the mixture was heated for 10 min in a hot water bath at 60° C. and was then completely dissolved. A 9-fold volume of physiological saline was added to the WellSolve solution in which the above drugs had each been dissolved. […] Note that an IC-2 dosage was determined on the basis of an effective concentration in vitro. […]
# Wnt/β-catenin signal [1] = test: Dual-luciferase reporter assay in colon cancer cells; assay type: cell-based; settings: DLD-1, HCT 116, colo 205; 48 hours
# Method: First, 3.34×10^4 colon cancer cells (DLD-1, HCT 116, or colo 205) were seeded on each well of a 24-well plate. After 24 hours, transfection was carried out by using 1 μL of lipofectamine 2000 (Invitrogen, Life Technologies Corp., Carlsbad, Calif.), 50 ng of pTCF4-CMVpro-FLuc, and 2.5 ng of pCMVpro-Rluc. After 48 hours from the low-molecular-weight compound treatment, 100 μL of 20% Passive Lysis Buffer (PROMEGA, Wisconsin, USA) was added to each well of a 24-well plate. The plate was shaken at ordinary temperature for 15 min and was then allowed to stand overnight at −30° C. On the following day, a Dual-Luciferase (a registered trademark) Reporter Assay System (PROMEGA) was used, and luciferase activity was then measured by using a MiniLumat LB 9506 (Berthold Technologies, Bad Wildbad, German).
# Wnt/β-catenin signal [2] = test: Luciferase assay in liver stellate cells (LX-2); assay type: cell-based, human
# Method: A human liver stellate cell line (LX-2 cells) was maintained and cultured in a DMEM containing 10% FBS. The cells used for experiments were suspended in a DMEM containing 1% FBS and plated. The cell density was at about 2.0×10^5 cell/cm^2.
# A luciferase assay was used to investigate an inhibitory effect of each low-molecular-weight compound on a Wnt/β-catenin signal. The luciferase assay was conducted under conditions indicated in FIG. 40 and the following sections 9.3.1 to 9.3.2. FIG. 40 illustrates a protocol when the cells were treated with a low-molecular-weight compound+TGFβ. Substantially the same experiment was carried out when the cells were treated with a low-molecular-weight compound alone or a low-molecular-weight compound+Wnt3a. Note that TGFβ or Wnt3a was added so as to increase the intensity of a Wnt/β-catenin signal.
# First, 5×Passive Lysis Buffer was diluted 5-fold with MilliQ water. The lysis buffer was added at 100 μl/well and the plate was shaken for 20 min. The lysate was frozen at −30° C. overnight.
# The sample frozen a day before, LARII, a Stop&Glo buffer, and a Stop&Glo substrate (materials other than the sample were shaded) were incubated at room temperature for about 1 h. A Stop&Glo solution (49 μl of the Stop&Glo buffer and 1 μl of the Stop&Glo substrate) was prepared for the number of the samples+1. Next, 50 μl of the LARII was dispensed into a 3.5-ml tube. Then, 10 μl of the sample was added and the tube was set in a measurement instrument. After completion of the first assay, 50 μl of the Stop&Glo solution was added and the tube was again set in the measurement instrument for another assay.
smiles,measurement,setting,value
O=C1[C@H](Cc2ccccc2)N2C(=O)CCN(C(=O)NCc3ccccc3)[C@H]2CN1Cc1cccc2ccccc12 [IC-2],fibrosis area (Sirius red staining),liver fibrosis,a decrease in the fibrosis area was detected
same,content of hydroxyproline,liver fibrosis; glycyrrhizin 150 mg/kg,a large decrease was observed
same,inhibitory effect on a Wnt/β-catenin signal in the colon cancer cells,Wnt/β-catenin signal [1],exerted an inhibitory effect
same,inhibition of a Wnt/β-catenin signal in the LX-2 cells,"Wnt/β-catenin signal [2]; compound alone, 24 hours",resulted in inhibition
same,inhibition of a Wnt/β-catenin signal in the LX-2 cells,"Wnt/β-catenin signal [2]; compound alone, 48 hours",resulted in inhibition
same,inhibition of a Wnt/β-catenin signal in the LX-2 cells,"Wnt/β-catenin signal [2]; compound+TGFβ, 24 hours",resulted in inhibition
same,inhibition of a Wnt/β-catenin signal in the LX-2 cells,"Wnt/β-catenin signal [2]; compound+TGFβ, 48 hours",resulted in inhibition
same,inhibition of a Wnt/β-catenin signal in the LX-2 cells,"Wnt/β-catenin signal [2]; compound+Wnt3a, 24 hours",resulted in inhibition
